Measured values: patent US5593835A, “Methods and kits for RNA binding compounds” (President and Fellows of Harvard College, priority 1995, dated 1997)
Read-outs that look alike come from different tables or passages of the source.

Legend:
[1] = target: TAR region of HIV RNA; assay: Fluorescence binding and competitive binding to TAR RNA; conditions: competition, 100 nM RNA, 15 nM fluorescent tobramycin, 20° C., pH 7.4; read-out: Dissociation Constant (KD) TAR RNA
Description: In order to quantitatively determine whether fluorescently labelled tobramycin and other antibiotics bind directly to the RRE region and/or to other regions of the HIV RNA, and with what affinity, the RRE and TAR regions of HIV RNA were prepared and used in the method of the invention as target RNAs.
In other competitive binding studies, TAR or RRE RNA was added at a constant concentration of 100 nM±5% and PYT at 15 nM. Different concentrations of competitive antibiotic (tobramycin (o-60 μM), gentamicin C (0-100 μM), neomycin B (0-4 μM), or lividomycin A (0-100 μM) or Rev protein (0-6 μM) were mixed with constant concentrations of RNA (100 nM TAR or RRE) and C1PYT (15 nM), in Binding buffer (140 mM NaCl, 5 mM KCl, 1 mM MgCl2, 20 mM HEPES, pH 7.4), 2 ml total volume, for 1-5 min. at 20° C. in a semimicrocell cuvette. The fluorescence was measured on a Perkin-Elmer Model 512 double beam fluorescence spectrophotometer. The excitation wavelength used was 330 nm. The intensities of fluorescence emission at 390 nm were used to calculate dissociation constants. Generally 8 to 12 points were used for calculation.
(§1) Competition binding measurements of antibiotics with RNA and PYT were performed at constant concentrations of PYT and RNA by monitoring fluorescence intensity changes as a function of changing concentrations of the antibiotics (a standard fluorescence curve). […]

[2] = target: X1s1 RNA (SEQ ID NO: 3), synthetically derived from the predicted structures; assay: Fluorescence binding measurements, X1s1 RNA
Description: (§2) The binding of tobramycin to two cloned RNAs X1 (SEQ ID NO:2) and J6 (SEQ ID NO:5), representative of both classes of consensus sequences, was measured using the fluorescence techniques described in the exemplification.
*synthetically derived from the predicted structures
(§3) Steady state fluorescence measurements were performed on a double beam fluorescence spectrometer (Perkin-Elmer Model 512, Norwalk, Conn.). The excitation wavelength was 341 nm. All measurements were done at 20° C. in 140 mM NaCl, 5 mM KCl, 1 mM CaCl2, 1 mM MgCl2, and 20 mM HEPES, pH 7.4. The KD of the PYT and the RNA aptamer was calculated by the curve fitting of the fluorescence intensity as a function of RNA concentration, using the following equation
as §1, with “curve). The KD s for the antibiotics were calculated by the curve fitting of the fluorescence intensity of PYT as a function of antibiotic concentration, using the following equation:” for “curve).”

[3] = target: clone W13 RNA (SEQ ID NO:1), tobramycin-selected RNA aptamer; assay: Equilibrium dialysis binding to clone W13 RNA; conditions: competition studies with 3H-acetyl tobramycin; read-out: dissociation constant
Description: One of these RNAs, clone W13 (SEQ ID NO:1) was chosen for quantitative studies to determine the specificity of its binding to RNA. […] The dissociation constant for tobramycin was determined to be 3 μM by competition studies with ^3 H-acetyl tobramycin. These values are close to those measured for tobramycin and ^3 H-acetyl tobramycin binding to ribosomal targets (LeGoffic et al. (1979) Eur. J. Biochem. 102: 73-81).
Equilibrium dialysis measurements were performed according to the procedure of Lorsch et al. (Biochem. (1994) 33: 973-982).

[4] = target: J6 RNA (SEQ ID NO:5); assay: Fluorescence binding measurements, J6 RNA
Description: as §2, §3
as §1, with “curve). The KD s for the antibiotics were calculated by the curve fitting of the fluorescence intensity of PYT as a function of antibiotic concentration, using the following equation:” for “curve).”

[5] = target: W13 RNA having SEQ ID NO:1; assay: Fluorescence (PYT quenching) titration and competition binding to W13 RNA; conditions: fluorescence; competition with PYT (150 nM PYT, 300 nM W13), 20° C., pH 7.4; N.B. = no measurable binding
Description: To study the binding behavior of clone W13, a fluorescently labelled pyrene-conjugated tobramycin derivative "PYT" was prepared.
For competitive binding studies, different concentrations of antibiotic (glucosamine (0-10 mM), erythromycin (0-6 mM), gentamicin C (0-700 μM), or neomycin B (0-650 μM)), were mixed with constant concentrations of RNA (300 nM W13) and PYT (150 nM), in Binding buffer (140 mM NaCl, 5 mM KCl, 1 mM MgCl2, 1 mM CaCl2, 20 mM HEPES, pH 7.4), 750 μl total volume, for 1-5 min. at 20° C. in a semimicro-cell cuvette. The fluorescence was measured on a Perkin-Elmer Model 512 double beam fluorescence spectrophotometer. The excitation wavelength used was 341 nm. The intensities of fluorescence emission at 380 nm were used to calculate dissociation constants. Generally 8 to 10 points were used for calculation.
as §3
(assuming a 1:1 complex): I=Io +0.5Δε ([PYT]o
-(([PYT]o +[RNA]o KI)^2 -4[PYT]o [RNA]o)^0.5)
Competition binding measurements of antibiotics with RNA and PYT were performed at constant concentrations of PYT and RNA by monitoring fluorescence intensity changes as a function of changing concentrations of the antibiotics (a standard fluorescence curve). The KD s for the antibiotics were calculated by the curve fitting of the fluorescence intensity of PYT as a function of antibiotic concentration, using the following equation:
I=Io +Δε[PYT.circle-solid.RNA]
[PYT.circle-solid.RNA]=0.5(([PYT]o +[RNA]o)([RNA]o
+KD)+KI ([T]o +[RNA]o +KD)-((([PYT]o
+[RNA]o)([RNA]o +KD)+KI ([T]o +[RNA]o
+KD))^2 -4([RNA]o +KD) [PYT]o [RNA]o
([RNA]o +KD))^0.5)([RNA]o +KD) (equation 2)
KD and KI are the dissociation constants for the antibiotic and PYT respectively.
[T]o is the total concentration of antibiotic added. Measurements were taken at least twice for each measured KD.

[6] = K1 - high affinity, read-out: Dissociation Constants K1(TOB)
[7] = K2 - low affinity, read-out: Dissociation Constants K2(TOB)

NC[C@H]1O[C@H](O[C@H]2[C@H](O)[C@@H](O[C@H]3O[C@H](CO)[C@@H](O)[C@H](N)[C@H]3O)[C@H](N)C[C@@H]2N)[C@H](N)C[C@@H]1O [tobramycin]
Kd [1]: 19.1 ± 1.1 µM | Kd [2, 6]: 0.012 ± 0.005 µM | Kd [2, 7]: 13.2 ± 0.5 µM | Kd [3]: 3 µM | Kd [4, 6]: 0.002 ± 0.001 µM | Kd [4, 7]: 6 ± 0.4 µM | Kd [5]: 4.3 ± 0.7 µM
